One series relates to NRVCs. More on the design: method as in Välimäki et al. [2017]. The conditions noted are these: concentrations up to 50 µM; ref Välimäki et al. [2017]; cited from earlier work.
Series [1] has as its system primary neonatal rat ventricular cardiomyocytes (NRVCs). In words: MTT assay in NRVCs. To be noted: 24 h. The class given is cell-based. The protocol:
(§1) The cells were exposed to the test compounds for 24 h and cytotoxicity was quantified with MTT and LDH assays as described previously (Talman et al. [2011]). For the determination of cell membrane integrity, 50 µl of medium from each well was transferred onto a new 96-well plate followed by addition of 50 µl of substrate solution containing 1.3 mM β-nicotinamide adenine dinucleotide, 660 µM iodonitrotetrazolium, 54 mM L(+)-lactic acid, 280 µM phenazine methosulphate and 0.2 M Tris–HCl (pH 8.0). After a 30-min incubation, the reaction was stopped by adding 50 µl of 1 M acetic acid to each well and absorbance was measured at 490 nm using Victor2 plate reader (PerkinElmer, Turku, Finland). Spontaneous LDH release was measured from untreated cells, maximal LDH release from cells lysed with 0.9% Triton X-100 and background absorbance was measured from wells without cells. After background extraction, cytotoxicity was calculated as follows: cytotoxicity (%) = [(sample − spontaneous LDH release)/(maximal LDH release − spontaneous LDH release)] × 100. For quantification of metabolic activity, 3-(4,5-dimethylthiazol-2-yl)-2,5-diphenyltetrazolium bromide (MTT) was added to the cells at a final concentration of 0.5 mg/ml followed by 2 h incubation in cell culture conditions. […] Absorbance was measured at 550 nm and absorbance at 650 nm was subtracted as background. […]
In general terms: Tetrazolium assays rely on reduction of a dye to a coloured formazan, in cell work by metabolically active cells.

The subject of the next series is MEFs. In words: MTT assay in MEFs. The class given is cell-based, mouse. To be noted: 24 h, 30 µM, not statistically significant. As to the method: as §1

In the case of `CCN(CC)c1ccc(NC(=O)c2c(-c3ccccc3)noc2C)cc1` [3i-1000], the “toxicity in NRVCs” value in the series with NRVCs is on record as “no toxicity”. Take `CCN(CC)c1ccc(NC(=O)c2c(C)noc2-c2cc(C)on2)cc1` [3i-1047]: the “increase in metabolic activity in NRVCs” value in series [1] was “not observed”. `CCC(=O)N(Cc1ccc(N(CC)CC)cc1)c1c(-c2ccccc2)noc1C` [3i-1120]: in the series on MEFs, the “toxicity in MEFs” value is recorded as “modest toxicity”.

The record behind these values is paper PMC6132687, “Stem cells are the most sensitive screening tool to identify toxicity of GATA4-targeted novel small-molecule compounds” (Archives of Toxicology, 2018).
